Data set [1] relates to methicillin-resistant Staphylococcus aureus (MRSA). Briefly: agar well diffusion assay. The following applies: Staphylococcus aureus, 24 h. The data set is classed as cell-based. The method, boiled down:
(§1)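 Multidrug-resistant clinical isolates swabbed on Mueller–Hinton agar at about 1–5 × 10^5 CFU/mL; 0.5 cm wells received 50 μL compound at 500 μg/mL in 1% DMSO. Incubation 24 h, 37 °C for bacteria and C. albicans, 25 °C for Aspergillus; inhibition zone diameter measured in mm.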
(In agar diffusion tests the substance spreads into inoculated agar from a disc or well.)

The subject of data set [2] is Escherichia coli (E. coli), multidrug resistant clinical isolate. Briefly: agar well diffusion assay. The data set is classed as cell-based. Particulars: 24 h. The method, boiled down:
as §1

For data set [3], the system named is Staphylococcus aureus (S. aureus), multidrug resistant clinical isolate. Put plainly: agar well diffusion assay. In kind it is cell-based. Particulars: Staphylococcus aureus, 24 h. The method, boiled down: as §1
Data set [4] concerns Pseudomonas aeruginosa (P. aeruginosa), multidrug resistant clinical isolate. Put plainly: agar well diffusion assay. The following applies: 24 h. In kind it is cell-based. A digest of the protocol:
as §1

The test system of a further data set is S. aureus. Briefly: MIC by broth microdilution method (resazurin end point). Particulars: Staphylococcus aureus. The data set is classed as cell-based. The method, boiled down: (§2)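 Twofold dilutions of fluorene derivatives (500–7.8 μg/mL) in Mueller–Hinton broth, inoculum from 0.5 McFarland suspension per CLSI 2012. Resazurin added, 1–4 h at 37 °C; MIC is lowest concentration preventing blue-to-pink change.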
On the technique in general: Dilution methods test growth across graded concentrations, often in twofold steps.

Another data set concerns E. coli. The description is as above. In kind it is cell-based. The following applies: Escherichia coli, 24 h at 37 °C. A digest of the protocol: as §2
For the next data set, the system named is MRSA. The description is as above. The data set is classed as cell-based. The following applies: Staphylococcus aureus. The method, boiled down:
as §2

Another data set deals with P. aeruginosa. The data set is described as above. The data set is classed as cell-based. The following applies: Pseudomonas aeruginosa, 24 h at 37 °C. The method, boiled down: as §2
The subject of data set [5] is WI-38 human normal fibroblast cells. Put plainly: cell viability assay (MTT). The data set is classed as cell-based. The following applies: 24 h. A digest of the protocol:
(§3)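 Viability was read by MTT absorbance ([…]) after 24 h treatment with 0, 1, 10, 31.25, 62.5, 125, 250 or 500 µg/mL compound. Cultures were grown in RPMI-1640/10% FBS and plated at 5000 cells/well the day before dosing.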

The subject of data set [6] is MDA-MB-231 human breast cancer cells. Put plainly: cell viability assay (MTT). Particulars: 24 h. In kind it is cell-based. A digest of the protocol: as §3
For data set [7], the system named is A549 human lung cancer cells. Briefly: cell viability assay (MTT). The data set is classed as cell-based. Particulars: 24 h.
Data set [8] has as its system Klebsiella pneumoniae (K. pneumoniae), multidrug resistant clinical isolate. Briefly: agar well diffusion assay. Particulars: 24 h, PC positive control Gentamicin 10 µg/mL. The data set is classed as cell-based. A digest of the protocol:
as §1

In data set [9] the test system is Acinetobacter baumannii (A. baumannii), multidrug resistant clinical isolate. Briefly: agar well diffusion assay. In kind it is cell-based. Particulars: 24 h, PC positive control Gentamicin 10 µg/mL. The method, boiled down:
as §1

In a further data set the test system is K. pneumoniae. Briefly: MIC by broth microdilution method (resazurin end point). The data set is classed as cell-based. The following applies: Klebsiella pneumoniae, 24 h at 37 °C. A digest of the protocol: as §2
The subject of data set [10] is Streptococcus pneumoniae (S. pneumoniae), multidrug resistant clinical isolate. Briefly: agar well diffusion assay. Particulars: Streptococcus pneumoniae, 24 h, read-out: Mean zone of inhibition. The data set is classed as cell-based. A digest of the protocol: as §1
Data set [11] relates to Aspergillus flavus (A. flavus). Briefly: agar well diffusion assay. The data set is classed as cell-based. The following applies: 24 h, PC positive control fluconazole 25 µg/mL. The method, boiled down: as §1
Data set [12] has as its system Aspergillus niger (A. niger). Briefly: agar well diffusion assay. Particulars: 24 h, PC positive control fluconazole 25 µg/mL. In kind it is cell-based. The method, boiled down: as §1
The subject of data set [13] is Candida albicans (C. albicans). Briefly: agar well diffusion assay. The data set is classed as cell-based. The following applies: 24 h, PC positive control fluconazole 25 µg/mL. A digest of the protocol: as §1
The mark [14] stands for this setting: 31.25 µg/mL, read-out: Validity (%) for sample concentrations (µg/mL) 31.25.
Setting [15] is: 62.50 µg/mL, read-out: Validity (%) for sample concentrations (µg/mL) 62.50.
Where [16] appears, read: 125 µg/mL, read-out: Validity (%) for sample concentrations (µg/mL) 125.
The mark [17] stands for this setting: 250 µg/mL, read-out: Validity (%) for sample concentrations (µg/mL) 250.
[18] abbreviates: 500 µg/mL, read-out: Validity (%) for sample concentrations (µg/mL) 500.
The mark [19] stands for this setting: 1 µg/mL, read-out: Validity (%) for sample concentrations (µg/mL) 1.
[20] abbreviates: 10 µg/mL, read-out: Validity (%) for sample concentrations (µg/mL) 10.
The mark [21] stands for this setting: PC positive control Gentamicin 10 µg/mL.
Where [22] appears, read: read-out: Mean zone of inhibition.

Each structure is given as a SMILES string. ≈ marks a conversion by molar mass, not a printed value. Read-outs that look alike come from different tables or passages of the source.

As a reminder, the zone of inhibition is the extent of the growth-free halo in a diffusion test. One may read the MIC as the lowest concentration that inhibits growth of the organism. The term IC50 denotes the point on the concentration scale where inhibition reaches its midpoint. A high value points to weaker potency. As a reminder, the melting point is the temperature, or range, at which the solid turns liquid. The molecule `O=C1C(Cl)C(c2ccc[nH]2)N1c1nc(-c2cc(Cl)cc3c2-c2ccc(Cl)cc2C3)cs1` (centres unmarked) [6l, 3-Chloro-1-(4-(2,7-dichloro-9H-fluoren-4-yl)thiazol-2-yl)-4-(1H-pyrrol-2-yl)azetidin-2-one] showed a melting point of 105 to 107 °C. Also, in data set [1] (500 µg/mL of tested compound), the zone of inhibition at 500 µg/mL was found to be 15 mm. Also, the zone of inhibition at 500 µg/mL in [2] (500 µg/mL of tested compound) stood at 22 mm. Moreover, the zone of inhibition at 500 µg/mL in data set [3] (S. aureus, 500 µg/mL of tested compound) came out at 15 mm. In data set [4] (500 µg/mL of tested compound), this molecule came in with a zone of inhibition at 500 µg/mL of 8 mm. The MIC in the data set on S. aureus (S. aureus, 24 h at 37 °C, read-out: MIC) was 31.2 µg/mL (≈ 64.2 µM). The minimal inhibitory concentration (MIC) in the data set with E. coli worked out at 31.2 µg/mL (≈ 64.2 µM). Moreover, the MIC with MRSA (24 h at 37 °C, read-out: MIC) amounted to 31.2 µg/mL (≈ 64.2 µM). In the data set on P. aeruginosa, this molecule came in with an MIC of 125 µg/mL (≈ 257 µM). For the same molecule, in data set [5] (setting [14]), the viability at 31.25 µg/mL stood at 94%. Besides, the viability at 62.5 µg/mL in [5] (setting [15]) amounted to 76.4%. Besides, the viability at 125 µg/mL in [5] (setting [16]) stood at 70.2%. Moreover, the viability at 250 µg/mL in data set [5] (setting [17]) is 52.5%. The viability at 500 µg/mL in data set [5] (setting [18]) stood at 39%. This molecule also came in with a concentration for half-maximal inhibition (IC50) in data set [5] of 350 µg/mL (≈ 719 µM). Further, the viability at 1 µg/mL in data set [6] (setting [19]) amounted to 96.9%. In addition, the viability at 10 µg/mL in data set [6] (setting [20]) came out at 90.4%. Moreover, the viability at 31.25 µg/mL in data set [6] (setting [14]) is 85.5%. In data set [6] (62.5 µg/mL, read-out: Validity (%) for sample concentrations (µg/mL) 62.5), the viability at 62.5 µg/mL was 71.9%. In addition, the viability at 125 µg/mL in data set [6] (setting [16]) worked out at 69.8%. Besides, the viability at 250 µg/mL in data set [6] (setting [17]) came out at 66.7%. In addition, the viability at 500 µg/mL in data set [6] (setting [18]) worked out at 60.9%. Further, the IC50 in data set [6] is above 500 µg/mL. The viability at 1 µg/mL in data set [7] (setting [19]) stood at 85%. Besides, the viability at 10 µg/mL in data set [7] (setting [20]) is 72.2%. For the same molecule, the viability at 31.25 µg/mL in data set [7] (setting [14]) was found to be 58.1%. The viability at 62.5 µg/mL in [7] (setting [15]) came to 53.6%. Besides, the viability at 125 µg/mL in [7] (setting [16]) came to 43.1%. Moreover, the viability at 250 µg/mL in data set [7] (setting [17]) came out at 34%. The viability at 500 µg/mL in data set [7] (setting [18]) amounted to 30.3%. Further, in data set [7] (1000 µg/mL, read-out: Validity (%) for sample concentrations (µg/mL) 1000), the viability at 1000 µg/mL is 27.9%. In addition, the midpoint of inhibition in [7], the IC50, lay at 95 µg/mL (≈ 195 µM).

In the case of `CNC(C)C1CCC(N)C(OC2C(N)CC(N)C(OC3OCC(C)(O)C(NC)C3O)C2O)O1` (centres unmarked) [Gentamicin, reference compound], the zone of inhibition at 10 µg/mL in [8] came to 20 mm; in [2] (setting [21]) it was 28 mm; in data set [9] it was 20 mm; in data set [4] (setting [21]), 30 mm. Also, the minimal inhibitory concentration (MIC) in the data set on K. pneumoniae, with E. coli and with P. aeruginosa was 0.3 µg/mL (≈ 0.628 µM) in each case.

With `CN[C@H](CC(C)C)C(=O)N[C@H]1C(=O)N[C@@H](CC(N)=O)C(=O)N[C@H]2C(=O)N[C@H]3C(=O)N[C@H](C(=O)N[C@H](C(=O)O)c4cc(O)cc(O)c4-c4cc3ccc4O)[C@H](O)c3ccc(c(Cl)c3)Oc3cc2cc(c3O[C@@H]2O[C@H](CO)[C@@H](O)[C@H](O)[C@H]2O[C@H]2C[C@](C)(N)[C@H](O)[C@H](C)O2)Oc2ccc(cc2Cl)[C@H]1O` [Vancomycin, reference compound], the zone of inhibition at 50 µg/mL turned out to be 20 mm in data set [10], 26 mm in [1] (setting [22]) and 28 mm in data set [3] (setting [22]). Moreover, the MIC against S. aureus (24 h) and with MRSA (24 h) was 0.7 µg/mL (≈ 0.483 µM) each time.

With `OC(Cn1cncn1)(Cn1cncn1)c1ccc(F)cc1F` [fluconazole], the figures for the zone of inhibition at 25 µg/mL in data set [11], in data set [12] and in [13] were 18 mm, 18 mm and 20 mm, respectively.

These data come from PMC7315563, “Bioactive fluorenes. Part III: 2,7-dichloro-9H-fluorene-based thiazolidinone and azetidinone analogues as anticancer and antimicrobial against multidrug resistant strains agents” (BMC Chemistry, 2020).
